Assay results reported in US12371454B2, “Cyclic peptide compound having Kras inhibitory action” (priority 2019, dated 2025).
pIC50: −log10 of the molar value. Positions of bridges follow the written chain, without caps; N, C: chain ends. Non-standard residues stand in square brackets, D forms with d. Residues, ends and D or L forms follow the SMILES beside them. *: point of attachment. hPhe(3-Cl-4-CF3) = N[C@@H](CCc1ccc(C(F)(F)F)c(Cl)c1)C(=O)O; hPhe(3-F,4-CF3) = N[C@@H](CCc1ccc(C(F)(F)F)c(F)c1)C(=O)O; hPhe(4-CF3) = N[C@@H](CCc1ccc(C(F)(F)F)cc1)C(=O)O; NMePhe(4-Me) = CN[C@@H](Cc1ccc(C)cc1)C(=O)O; NMeGly(cPent) = CN[C@H](C(=O)O)C1CCCC1; NMeCha = CN[C@@H](CC1CCCCC1)C(=O)O; NMeD = CN[C@@H](CC(=O)O)C(=O)O; NMeL = CN[C@@H](CC(C)C)C(=O)O; Chg = N[C@H](C(=O)O)C1CCCCC1; NMeV = CN[C@H](C(=O)O)C(C)C; d(β3hA) = C[C@@H](N)CC(=O)O; NMeS = CN[C@@H](CO)C(=O)O; NMeA = CN[C@@H](C)C(=O)O; Piperidide = C1CCN(*)CC1; Pra = C#CC[C@H](N)C(=O)O; dNMeA = CN[C@H](C)C(=O)O; Ac5c = NC1(C(=O)O)CCCC1; Aze = O=C(O)[C@@H]1CCN1; CH2CMe2OH = CC(C)(O)C*; Aib = CC(C)(N)C(=O)O; Isopentyl = CC(C)CC*; NEtG = CCNCC(=O)O; Sar = CNCC(=O)O

Each compound was assayed against T1, Kras and SOS1 (biotin-tagged human Kras loaded with GDP, His-tagged human SOS1) (Homo sapiens, UniProt P01116, G12D) (assay: Protein-protein interaction inhibition between Kras and SOS1 (KrasGl2D-SOS PPI) using AlphaScreen). Conditions: AlphaScreen; biotin-tagged human Kras loaded with GDP, His-tagged human SOS1; read-out: KRAS G12D-SOS PPI IC50.
T1 construct: made in house; host or cells: E. coli (stated for Kras only)
T1 sequence (P01116 1-188 isoform P01116-2 G12D): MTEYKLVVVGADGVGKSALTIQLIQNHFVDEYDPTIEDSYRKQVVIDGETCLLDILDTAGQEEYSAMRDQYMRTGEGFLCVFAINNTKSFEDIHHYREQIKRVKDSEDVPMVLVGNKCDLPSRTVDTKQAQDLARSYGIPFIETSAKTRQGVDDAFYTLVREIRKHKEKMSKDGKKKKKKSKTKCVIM
Type: binding
Procedure, shortened: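 Donor beads (nickel) hold His-SOS1; acceptor beads (streptavidin) hold biotin-Kras bound to GDP. Signal measured at 520-620 nm following 680 nm excitation.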
In the case of `CC(C)C[C@H]1C(=O)N[C@@H](C2CCCCC2)C(=O)N(C)CC(=O)N(C)CC(=O)N(C)[C@@H](CC2CCCCC2)C(=O)N(C)CC(=O)N[C@@H](CCc2ccc(C(F)(F)F)c(F)c2)C(=O)N2CCC[C@H]2C(=O)NC2(CCCC2)C(=O)N(C)[C@@H](CC(C)C)C(=O)N[C@H](C)CC(=O)N1C` [Compound 1527] (cyclo([Ac5c][NMeL][d(β3hA)][NMeL][Chg][Sar][Sar][NMeCha][Sar][hPhe(3-F,4-CF3)]P)), the pIC50 was 6.72. `CC[C@H](C)[C@@H]1NC(=O)[C@H](CC(C)C)N(C)C(=O)C[C@@H](C(=O)N2CCCCC2)N(C)C(=O)[C@H](CC(C)C)N(C)C(=O)C(C)(C)NC(=O)[C@H](COCC(C)(C)O)N(C)C(=O)[C@H](CCc2ccc(C(F)(F)F)cc2)NC(=O)CN(C)C(=O)[C@H](COCCC(C)C)N(C)C(=O)CN(C)C(=O)CN(CC)C1=O` [Compound 1528] ([NMeL]I[NEtG][Sar][NMeS](Isopentyl)[Sar][hPhe(4-CF3)][NMeS](CH2CMe2OH)[Aib][NMeL][NMeD]-Piperidide; lactam N-11) gave a pIC50 of 7.39. `CC[C@H](C)[C@@H]1NC(=O)[C@H](CC(C)C)N(C)C(=O)C[C@@H](C)NC(=O)[C@H](C2CCCC2)N(C)C(=O)C2(CCCC2)NC(=O)[C@@H]2CCCN2C(=O)[C@H](CCc2ccc(C(F)(F)F)c(Cl)c2)NC(=O)[C@@H](C)N(C)C(=O)[C@H](CC2CCCCC2)N(C)C(=O)CN(C)C(=O)CN(C)C1=O` [Compound 1530] (cyclo([Ac5c][NMeGly(cPent)][d(β3hA)][NMeL]I[Sar][Sar][NMeCha][dNMeA][hPhe(3-Cl-4-CF3)]P)) gave a pIC50 of 6.89. `CC[C@H](C)[C@@H]1NC(=O)[C@H](CC(C)C)N(C)C(=O)C[C@@H](C(=O)N2CCCCC2)N(C)C(=O)[C@H](CC(C)C)N(C)C(=O)C(C)(C)NC(=O)[C@H](COCC(C)(C)O)N(C)C(=O)[C@H](CCc2ccc(C(F)(F)F)c(F)c2)NC(=O)CN(C)C(=O)[C@H](COCCC(C)C)N(C)C(=O)CN(C)C(=O)CN(C)C1=O` [Compound 1532] ([NMeL]I[Sar][Sar][NMeS](Isopentyl)[Sar][hPhe(3-F,4-CF3)][NMeS](CH2CMe2OH)[Aib][NMeL][NMeD]-Piperidide; lactam N-11) showed a pIC50 of 8.32. `C#CC[C@@H]1NC(=O)[C@H](CC(C)C)N(C)C(=O)C[C@@H](C)NC(=O)[C@H](CC(C)C)N(C)C(=O)C2(CCCC2)NC(=O)[C@@H]2CCCN2C(=O)[C@H](CCc2ccc(C(F)(F)F)c(F)c2)NC(=O)CN(C)C(=O)[C@H](CC2CCCCC2)N(C)C(=O)CN(C)C(=O)CN(C)C1=O` [Compound 1533] (cyclo([Ac5c][NMeL][d(β3hA)][NMeL][Pra][Sar][Sar][NMeCha][Sar][hPhe(3-F,4-CF3)]P)) showed a pIC50 of 7.17. Compound `CC[C@H](C)[C@@H]1NC(=O)[C@H](CC(C)C)N(C)C(=O)C[C@@H](C)NC(=O)[C@H](C(C)C)N(C)C(=O)C2(CCCC2)NC(=O)[C@@H]2CCCN2C(=O)[C@H](CCc2ccc(C(F)(F)F)c(F)c2)NC(=O)CN(C)C(=O)[C@H](CC2CCCCC2)N(C)C(=O)CN(C)C(=O)CN(C)C1=O` [Compound 1534] (cyclo([Ac5c][NMeV][d(β3hA)][NMeL]I[Sar][Sar][NMeCha][Sar][hPhe(3-F,4-CF3)]P)) has a pIC50 of 7.21. With `CC[C@H](C)[C@@H]1NC(=O)[C@H](C)N(C)C(=O)C[C@@H](C)NC(=O)[C@H](C2CCCC2)N(C)C(=O)C2(CCCC2)NC(=O)[C@@H]2CCCN2C(=O)[C@H](CCc2ccc(C(F)(F)F)c(Cl)c2)NC(=O)[C@@H](C)N(C)C(=O)[C@H](CC2CCCCC2)N(C)C(=O)CN(C)C(=O)CN(C)C1=O` [Compound 1535] (cyclo([Ac5c][NMeGly(cPent)][d(β3hA)][NMeA]I[Sar][Sar][NMeCha][dNMeA][hPhe(3-Cl-4-CF3)]P)) the pIC50 was 7.39. Compound `CC[C@H](C)[C@@H]1NC(=O)[C@H](C)N(C)C(=O)C[C@@H](C)NC(=O)[C@H](C2CCCC2)N(C)C(=O)C2(CCCC2)NC(=O)[C@@H]2CCCN2C(=O)[C@H](CCc2ccc(C(F)(F)F)c(Cl)c2)NC(=O)[C@H]2CCCN2C(=O)[C@H](Cc2ccc(C)cc2)N(C)C(=O)[C@@H]2CCN2C(=O)[C@H](C)N(C)C1=O` [Compound 1540] (cyclo([Ac5c][NMeGly(cPent)][d(β3hA)][NMeA]I[NMeA][Aze][NMePhe(4-Me)][dP][hPhe(3-Cl-4-CF3)]P)) has a pIC50 of 6.64.
